According to PubChem BioAssay (NCI):
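The compound was tested at five concentrations on cells cultured in 96-well plates, with a 48-hour exposure period. Here, GI50 denotes the concentration required for 50% inhibition of growth. At the TGI there is no net growth.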

Key:
Test in all cases: NCI tumour cell line growth inhibition, 48 h
A549 NSCLC = tested on: A549 NSCLC
HCT-116 colon = tested on: HCT-116 colon
MALME-3M melanoma = tested on: MALME-3M melanoma
CAKI-1 renal = tested on: CAKI-1 renal
A498 renal = tested on: A498 renal
UACC-62 melanoma = tested on: UACC-62 melanoma
SF-268 CNS = tested on: SF-268 CNS
NCI-H23 lung = tested on: NCI-H23 lung
ACHN renal = tested on: ACHN renal
SF-295 CNS = tested on: SF-295 CNS

Compound | TGI (A549 NSCLC) [µM] | TGI (HCT-116 colon) [µM] | TGI (MALME-3M melanoma) [µM] | TGI (CAKI-1 renal) [µM] | TGI (A498 renal) [µM] | TGI (UACC-62 melanoma) [µM] | TGI (SF-268 CNS) [µM] | TGI (NCI-H23 lung) [µM] | TGI (ACHN renal) [µM] | TGI (SF-295 CNS) [µM] | GI50 (MALME-3M melanoma) [µM] | GI50 (A549 NSCLC) [µM] | GI50 (HCT-116 colon) [µM] | GI50 (CAKI-1 renal) [µM] | GI50 (A498 renal) [µM] | GI50 (UACC-62 melanoma) [µM] | GI50 (SF-268 CNS) [µM] | GI50 (NCI-H23 lung) [µM] | GI50 (ACHN renal) [µM]
COc1ccc(/C(Cl)=C(\C=O)c2ccc(OC)cc2)cc1 | > 100 | > 100 | > 100 | > 100 | > 100 | > 100 | > 100 | > 100 | > 100 | > 100 | – | – | – | – | – | – | – | – | –
Cc1c2cccc-2c(OCCO)cc2c3ccccc3n(C)c12 | 15.5 | 12.8 | 17 | 26.6 | 24 | 17.5 | 25.6 | > 100 | 24 | 16.9 | – | – | – | – | – | – | – | – | –
CC(C)C(C/C=C1\CC(CO)(COC(=O)C(C)(C)C)OC1=O)C(C)C (stereo not given) | 16.6 | 22.7 | 23.5 | 21.7 | 28.7 | 31.3 | 27.7 | 19.7 | 24.4 | 18.1 | – | – | – | – | – | – | – | – | –
COc1ccc2c(c1)CCCN2CCCCCCCCCCN(CCC(C)C)CCC(C)C | 26.2 | – | 28.1 | 28.9 | 31 | 27.1 | 25.6 | 12.7 | 22.8 | 27.4 | – | – | – | – | – | – | – | – | –
COc1ccc(C2=C3SC=c4ccccc4=C3ON=C2c2ccccc2)cc1 | > 100 | > 100 | > 100 | > 100 | > 100 | > 100 | > 100 | > 100 | > 100 | > 100 | – | – | – | – | – | – | – | – | –
N=C1C(=N)c2ccccc2-c2ccccc21.N=C1C(=N)c2ccccc2-c2ccccc21.N=C1C(=N)c2ccccc2-c2ccccc21.[Cl-].[Ru+2] | > 27.9 | 3.2 | 3.29 | – | – | 3.5 | 3.28 | 4.93 | 3.29 | 3.23 | 1.79 | – | – | – | – | – | – | – | –
NCCCn1c2c(c3ccc([N+](=O)[O-])cc3c1=O)C(=O)c1ccccc1-2 | – | – | – | 0.494 | 1.45 | 0.431 | > 12.2 | 2.42 | 0.0885 | – | – | 0.0233 | 0.0205 | 0.0276 | 0.277 | 0.102 | 0.24 | 0.078 | 0.0198
Cc1cc(/N=C/c2ccc(F)cc2)n(-c2ccccc2)n1 | > 100 | > 100 | > 100 | > 100 | > 100 | > 100 | > 100 | > 100 | > 100 | > 100 | – | – | – | – | – | – | – | – | –
CC(=O)NNc1nc(-c2ccc([N+](=O)[O-])cc2)c(C#N)c(=O)n1C | > 100 | 94.2 | > 100 | > 100 | 75.5 | > 100 | > 100 | > 100 | > 100 | > 100 | – | – | – | – | – | – | – | – | –
CC(=O)O[C@H]1CC[C@@]2(C)C(=CC[C@H]3[C@@H]4C/C(=C\c5ccc(N(C)C)cc5)[C@H](OC(C)=O)[C@@]4(C)CC[C@@H]32)C1 | 31.7 | 25.3 | 29.7 | – | 36.6 | 20.7 | 26.7 | 30.9 | 24.4 | 21 | – | – | – | – | – | – | – | – | –
CSc1ccsc1-c1sc(-c2cc(SC)c(-c3sc(-c4cc(SC)c(-c5sccc5SC)s4)cc3SC)s2)cc1SC | > 100 | > 100 | 81.7 | 34 | > 100 | > 100 | > 100 | > 100 | > 100 | > 100 | – | – | – | – | – | – | – | – | –
CCSC1=N/C(=C\c2ccc(N(C)C)cc2)C(Cl)=N1 | > 100 | > 100 | > 100 | > 100 | > 100 | > 100 | > 100 | > 100 | > 100 | > 100 | – | – | – | – | – | – | – | – | –
NCCc1cc(O)c(O)cc1O | > 100 | 53.3 | > 74.1 | 61.5 | > 100 | 74.9 | 58.5 | > 69.6 | 60.1 | 49.3 | – | – | – | – | – | – | – | 24.2 | –
CN(C)CCCn1cnc2cc(Cl)c(Cl)cc21 | > 100 | > 100 | > 100 | > 100 | > 100 | 82.2 | > 100 | > 100 | > 100 | > 100 | – | – | – | – | – | – | – | – | –
CCc1nc(N)nc(N)c1-c1ccc([N+](C)(C)C)cc1 | > 100 | > 100 | – | > 100 | > 100 | > 100 | > 100 | > 100 | > 100 | > 100 | – | – | – | – | – | – | – | – | –
O=P1(c2ccccc2)Nc2ccccc2SSc2ccccc2N1 | 46.1 | 31.4 | 36.9 | 32.4 | 41.2 | 29.8 | 34 | 32.7 | – | 30.3 | – | – | – | – | – | – | – | – | –
